The values below come from US8367623B2, “Glycolipid and medicine for autoimmune disease containing the same as active ingredient” (Japan as Represented by President of National Center of …, priority 2001, dated 2013).

Assay [1] concerns experimental autoimmune encephalomyelitis (EAE). Description: experimental autoimmune encephalomyelitis (EAE) suppression test, B6 mice. The class given is in vivo, C57BL6J(B6) mice. As to conditions: for Incidence / Onset / Total score / Max. score / Path. score: 400 ng/kg; for Path. score: pathological score 0-4; for EAE suppression effect: oral administration 400 ng/kg.
Assay [2] shares this test system. Description: EAE suppression test in NKT knockout mice. The class given is in vivo, NKT knockout mice (TCR J alpha 281 knockout mice). The conditions noted are these: for Incidence / Max. score / Onset / Total score: NKT knockout mice, 0 day oral administration, 400 ng/kg.
Assay [3] shares this test system. Description: mechanism of EAE suppression, with or without anti-IL-4 antibody. Format: in vivo, mice.
Assay [4] has as its system collagen induced arthritis. Briefly: collagen arthritis (CIA) suppression test, C57BL6 mice. Format: in vivo. The conditions noted are these: B6 mice, 500 μg/kg intraperitoneally twice a week from the additional immunization, FIG. 4.
For assay [5], the system named is collagen induced arthritis. Description: collagen arthritis (CIA) suppression test, SJL mice. Format: in vivo. The conditions noted are these: FIG. 4.
Another assay deals with diabetes incidence. Description: suppression test of diabetes incidence in NOD mice. Format: in vivo. As to conditions: NOD mice four weeks in age, 100 μg/kg intraperitoneal, twice, FIG. 5. The protocol: Next, a suppression test of diabetes incidence was conducted using NOD mice.
A further assay concerns serum INF-γ and IL-4. Description: cytokines in blood (serum INF-γ and IL-4, ELISA). Format: in vivo. The conditions noted are these: administered to mice, serum levels with elapsed time, FIG. 6. Here is the method:
A large amount of cytokine is known to be released into the blood in a short duration of time when NKT cells are stimulated. Therefore, serum INF-γ and IL-4 levels with elapsed time were measured using the ELISA method when the synthesized glycolipids were administered to mice.
(An ELISA detects its analyte on a solid surface through an enzyme-linked reagent.)

Assay [6] deals with Murine spleen cells. Description: spleen cell proliferation reaction (thymidine incorporation). The class given is cell-based. As to conditions: FIG. 7 and FIG. 9. The protocol:
Murine spleen cells were isolated, and the proliferation reaction for the synthesized glycolipids were measured using thymidine incorporation into the cells as the indicator.
(§1) Murine spleen cells were isolated, and the proliferation reactions for synthesized glycolipids were measured using thymidine incorporation into the cells as the indicator. […] Murine spleen cells were isolated, and levels of INF-γ and IL-4 formation due to the synthesized glycolipids were measured using the ELISA method.
In general terms: Uptake of a labelled nucleoside into DNA is a usual measure of proliferation.

Assay [7] has as its system Murine spleen cells. Briefly: spleen cell cytokine measurements (INF-γ and IL-4, ELISA). The class given is cell-based. As to conditions: FIG. 8 and FIG. 9. The protocol: Murine spleen cells were isolated, and levels of INF-γ and IL-4 formation due to synthesized glycolipids were measured using the ELISA method.
as §1

The next assay relates to anti-MOG antibody. Briefly: serum anti-MOG antibody measurements (ELISA). The class given is in vivo. As to conditions: FIG. 10. The text has this:
The ELISA method was used to measure levels of anti-MOG antibody and its isotype in the group treated using synthesized glycolipids. The anti-MOG antibody level rose in the group treated using Compound 25.

The test system of assay [8] is experimental autoimmune encephalomyelitis (EAE), collagen induced arthritis. The conditions noted are these: J. Immunol. 2001, 166, 662-669, cited from earlier work.
Setting [9] is: 0 day oral administration, clinical score 0-6.
Where [10] appears, read: anti-IL-4 (+), anti-IL-4 antibody (1 mg/ml) intraperitoneally.

Turning to `CCCCCCCCCCCCCCCCCCCCCCCC(=O)N[C@@H](CO[C@H]1O[C@H](CO)[C@H](O)[C@H](O)[C@H]1O)[C@H](O)[C@H](O)CCCCC` [Compound 25, (2S,3S,4R)-1-O-(α-D-galactosyl)-2-(tetracosanoylamino)-1,3,4-nonane triol], the Incidence in assay [1] (0 day oral administration) is 10/12; in assay [1] (8th day oral administration), 6/7; in [2], 6/6; in assay [3] (setting [10]) it was 10/10; in assay [3] (anti-IL-4 (−)), 9/10. The Onset in assay [1] (0 day oral administration) was determined as 14.80 ± 1.22; in assay [1] (8th day oral administration) it was 16.43 ± 1.95; in assay [2], 12.43 ± 0.53; in assay [3] (setting [10]), 9.43 ± 0.90; in assay [3] (anti-IL-4 (−)), 11.00 ± 0.78. In addition, the Total score in assay [1] (0 day oral administration) is 10.71 ± 3.23; in assay [1] (8th day oral administration), 10.94 ± 3.40; in assay [2], 34.36 ± 4.15; in assay [3] (setting [10]) it was 38.79 ± 2.94; in assay [3] (anti-IL-4 (−)), 26.05 ± 4.16. The Max. score is given as 1.42 ± 0.33 in [1] (setting [9]); 2.25 ± 0.51 in assay [1] (8th day oral administration); 3.64 ± 0.28 in assay [2]; 3.50 ± 0.15 in [3] (setting [10]); 2.75 ± 0.37 in assay [3] (anti-IL-4 (−)). The same compound returned a Path. score in [1] (0 day oral administration) of 1.00 ± 0.13. Further, the EAE suppression effect entry in assay [1] (result in words) is reported as “EAE suppression effect was observed”; in [2] (NKT knockout mice (TCR J alpha 281 knockout mice), result in words), “could not be observed”. In assay [1] (oral administration, result in words), the “suppression effect in the pathological test” value is on record as “suppression effect was observed”. Besides, the “EAE suppression effect when anti-IL-4 antibody was administered” value in assay [3] (anti-IL-4 antibody, result in words) is listed as “disappeared”. In addition, the “suppression of collagen induced arthritis (clinical score)” value is “A suppression effect was observed” in assay [4]; “effectively suppressed” in assay [5] (500 μg/kg intraperitoneally twice a week from the additional immunization); “effectively suppressed” in assay [5] (500 μg/kg intraperitoneally twice a week, administration upon appearance of symptoms). Further, in the assay on diabetes incidence, the diabetes incidence entry is “significantly suppressed”. Besides, in the assay with serum INF-γ and IL-4, the “serum cytokine predominantly formed (INF-γ / IL-4)” value is given as “IL-4 was predominantly formed”. Moreover, in the assay with Murine spleen cells [6], the “spleen cell proliferation reaction” value is listed as “Significant spleen cell proliferation reaction”. The “cytokine predominantly formed by spleen cells (INF-γ / IL-4)” value in the assay with Murine spleen cells [7] is on record as “IL-4 was predominantly formed”. Also, in the assay on anti-MOG antibody, the “anti-MOG antibody isotype, IgG1 level” value was “rose significantly”. Further, the anti-MOG antibody level result in the assay on anti-MOG antibody is listed as “rose”.

In the case of `CCCCCCCCCCCCCCCCCCCCCCCCCC(=O)N[C@@H](CO[C@H]1O[C@H](CO)[C@H](O)[C@H](O)[C@H]1O)[C@H](O)[C@H](O)CCCCCCCCCCCCCC` [α-GC, (2S,3S,4R)-1-O-(α-D-galactosyl)-2-(N-hexacosanoylamino)-1,3,4-octadecane triol, reference compound], the Incidence in assay [1] (0 day oral administration) is 12/12; in assay [1] (8th day oral administration), 7/7; in assay [2], 6/6; in [3] (setting [10]) it was 10/10; in assay [3] (anti-IL-4 (−)), 10/10. For the same compound, the Onset in assay [1] (0 day oral administration) came to 14.27 ± 0.98; in assay [1] (8th day oral administration), 13.86 ± 0.99; in assay [2] it was 13.33 ± 1.41; in assay [3] (setting [10]), 11.29 ± 1.58; in assay [3] (anti-IL-4 (−)), 9.10 ± 0.84. Besides, the Total score amounted to 20.32 ± 4.07 in assay [1] (0 day oral administration); 17.50 ± 2.74 in assay [1] (8th day oral administration); 32.25 ± 6.66 in assay [2]; 37.00 ± 5.02 in assay [3] (setting [10]); 45.00 ± 3.87 in [3] (anti-IL-4 (−)). In addition, the Max. score was found to be 2.41 ± 0.37 in [1] (setting [9]); 3.00 ± 0.29 in assay [1] (8th day oral administration); 3.67 ± 0.42 in assay [2]; 3.79 ± 0.29 in assay [3] (setting [10]); 4.00 ± 0.25 in assay [3] (anti-IL-4 (−)). This compound also displayed a Path. score in [1] (0 day oral administration) of 1.79 ± 0.38. Further, in [1] (result in words), the EAE suppression effect entry is listed as “no suppression effect was observed”. Also, the “serum cytokine predominantly formed (INF-γ / IL-4)” value in the assay on serum INF-γ and IL-4 is “INF-γ was predominantly formed”. Further, the “cytokine predominantly formed by spleen cells (INF-γ / IL-4)” value in the assay on Murine spleen cells [7] is on record as “INF-γ was predominantly formed”. Further, the “effect in suppressing or treating autoimmune diseases” value in [8] (EAE and collagen induced arthritis models) is “clearly not effective”. For the same compound, the cytokines induced entry in assay [8] is “induces both IL-4, a cytokine that suppresses autoimmune diseases, as well as IFN-γ”.

On to `CCCCCCCCCCCCCCCCCCCCCCCC(=O)N[C@@H](CO[C@H]1O[C@H](CO)[C@H](O)[C@H](O)[C@H]1O)[C@H](O)[C@H](O)CCCC` [Compound 23, (2S,3S,4R)-1-O-(α-D-galactosyl)-2-(tetracosanoylamino)-1,3,4-octane triol], for which the “spleen cell proliferation reaction” value in the assay with Murine spleen cells [6] is “Significant spleen cell proliferation reaction”. For the same compound, the “cytokine predominantly formed by spleen cells (INF-γ / IL-4)” value in the assay on Murine spleen cells [7] is reported as “IL-4 was predominantly formed”.

As to `CCCCCCCCCCCCCCCCCCCCCCCC(=O)N[C@@H](CO[C@H]1O[C@H](CO)[C@H](O)[C@H](O)[C@H]1O)[C@H](O)[C@H](O)CCC` [Compound 24, (2S,3S,4R)-1-O-(α-D-galactosyl)-2-(tetracosanoylamino)-1,3,4-heptane triol], the “spleen cell proliferation reaction” value with Murine spleen cells [6] is given as “Significant spleen cell proliferation reaction”. Also, in the assay with Murine spleen cells [7], the “cytokine predominantly formed by spleen cells (INF-γ / IL-4)” value is “IL-4 was predominantly formed”.
